How the values were obtained:
Assay type in all cases: cell-based
[1] = tested on: HNF-3beta expression in human embryonic stem cells (H9 line); experiment: High content screening assay: HNF-3beta protein expression (differentiation); conditions: for fold induction at 10 µM: Homo sapiens, Embryonic stem cell, 10 μM test compound with 100 ng/ml activin A on days 1-2, H9, total intensity by IN Cell Analyzer, strong and moderate hits, read-out: HNF3β Expression, Fold over Wnt 3a/AA control
Experimental: (§1) Maintenance of human embryonic stem cells (H9 line) was conducted as described in Example 1. Colonies of cells were maintained in an undifferentiated, pluripotent state with passage on average every four days. Passage was performed by exposing cell cultures to a solution of collagenase (1 mg/ml; Sigma-Aldrich) for 10 to 30 minutes at 37° C. followed by gentle scraping with a pipette tip to recover cell clusters. Clusters were allowed to sediment by gravity, followed by washing to remove residual collagenase. Cell clusters were split at a 1:3 ratio for routine maintenance culture or a 1:1 ratio for immediate assay. The human embryonic stem cell lines used were maintained at passage numbers less than passage 50 and routinely evaluated for normal karyotypic phenotype and absence of mycoplasma contamination.
(§2) Cell clusters used in the assay were evenly resuspended in normal culture medium and plated onto MATRIGEL-coated 96-well Packard VIEWPLATES (PerkinElmer) in volumes of […]. MEF conditioned medium supplemented with 8 ng/ml bFGF was used for initial plating and recovery. Daily feeding was conducted by aspirating spent culture medium from each well and replacing with an equal volume of fresh medium. Plates were maintained at 37° C., 5% CO2 in a humidified box throughout the duration of assay.
(§3) Screening was conducted using test compounds from a proprietary library of small molecules selected for their ability to inhibit GSK-3B enzyme activity. Compounds from this library were made available as 1 mM stocks, in a 96-well plate format in 50 mM HEPES, 30% DMSO. Screening compounds were tested in triplicate or duplicate sets. Primary screening assays were initiated by aspirating culture medium from each well followed by three washes in PBS to remove residual growth factors and serum. Test volumes of 80 to 100 μl per well were added back containing DMEM:F12 base medium (Invitrogen) supplemented with 0.5% FCS (HyClone) and 100 ng/ml activin A (R&D Biosystems) plus 10 μM test compound. Positive control wells contained the same base medium, substituting 10-20 ng/ml Wnt3a (R&D Biosystems) for the test compound. Negative control wells contained base medium with 0.5% FCS and activin A alone (AA only) or alternatively, 0.5% FCS without activin A or Wnt3a (no treatment). Wells were aspirated and fed again with identical solutions on day 2 of assay. On days 3 and 4, all assay wells were aspirated and converted to DMEM:F12 supplemented with 2% FCS and 100 ng/ml activin A (without test compound or Wnt3a); parallel negative control wells were maintained in DMEM:F12 base medium with 2% FCS and activin A (AA only) or alternatively, 2% FCS without activin A (no treatment).
(§4) At the end of culture, cells in 96-well plates were fixed with 4% paraformaldehyde at room temperature for 20 minutes, washed three times with PBS, and then permeabilized with 0.5% Triton X-100 for 20 minutes at room temperature. Alternatively, cells were fixed with ice cold 70% ethanol overnight at −20° C., washed three times with PBS, and then permeabilized with Triton X-100 for 5 minutes at 4° C. After fixing and permeabilizing, cells were washed again three times with PBS and then blocked with 4% chicken serum (Invitrogen) in PBS for 30 minutes at room temperature. Primary antibodies (goat anti-human Sox17 and goat anti-human HNF-3beta; R&D Systems) were diluted 1:100 in 4% chicken serum and added to cells for one hour at room temperature. Alexa Fluor 488 conjugated secondary antibody (chicken anti-goat IgG; Molecular Probes) was diluted 1:200 in PBS and added after washing the cells three times with PBS. To counterstain nuclei, 5 mM Draq5 (Alexis Biochemicals) was added for five minutes at room temperature. Cells were washed once with PBS and left in […] PBS for imaging.
(§5) Cells were imaged using an IN Cell Analyzer 1000 (GE Healthcare) utilizing the 51008bs dichroic for cells stained with Draq5 and Alexa Fluor 488. […]

[2] = tested on: cells expressing pluripotency markers derived from human embryonic stem cells; experiment: MTS viability (toxicity) assay of cells expressing pluripotency markers; parameters: Raw data (duplicate), first replicate / Average: unit not given here; conditions: for viability at 10 µM: Homo sapiens, Embryonic stem cell, viability of cells expressing pluripotency markers, relative to control; for Raw data (duplicate), first replicate / Raw data (duplicate), second replicate: MTS viability assay raw reading; for Raw data (duplicate), first replicate: replicate 1; for Raw data (duplicate), second replicate: replicate 2; for Average: average of duplicate MTS raw readings
Procedure, shortened: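 Cells expressing pluripotency markers, derived from human embryonic stem cells, were plated at 20,000 cells per well in 96-well clear-bottom plates and cultured overnight. Test compounds were applied in assay medium on days 1 and 2, and compound-free medium on days 3 and 4. On day 4, MTS was added and optical density at 490 nm was read in duplicate.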

[3] = tested on: human embryonic stem cells (H9 line); experiment: High content screening assay: cell number (proliferative response); conditions: for fold induction at 10 µM: Homo sapiens, Embryonic stem cell, 10 μM test compound with 100 ng/ml activin A on days 1-2, H9, total cell number by IN Cell Analyzer, strong and moderate hits, read-out: Proliferative Response, Fold over Wnt 3a/AA control
Experimental: as §1, §2, §3, §4, §5

[4] = tested on: Sox17 expression in human embryonic stem cells (H9 line); experiment: High content screening assay: Sox17 protein expression (differentiation); conditions: for fold induction at 10 µM: Homo sapiens, Embryonic stem cell, read-out: SOX17 Expression, Fold over Wnt 3a/AA control
Experimental: as §1, §2, §3, §4, §5

[5] = 10 μM test compound with 100 ng/ml activin A on days 1-2, H9, total intensity by IN Cell Analyzer, strong and moderate hits
[6] = cell number in the wells analysed for HNF-3b expression
[7] = cell number in the wells analysed for SOX-17 expression

Structure (SMILES) | fold induction at 10 µM [1] | viability at 10 µM [2] [%] | fold induction at 10 µM [3] | SOX17 Expression, Fold over Wnt 3a/AA control [4, 5] | HNF-3b Expression Total Intensity [1] | Raw data (duplicate), first replicate [2] | Raw data (duplicate), second replicate [2] | Average [2] | Proliferative Response Total cells [3, 6] | Proliferative Response Total cells [3, 7] | fold induction at 10 µM [4, 5] | SOX-17 Expression Total Intensity [4]
O=C1NC(=O)C(c2cn(-c3cccnc3)c3ccccc23)=C1c1n[nH]c2ccccc12 [Compound 14] | 0.869 | 95.1 | 1.05 | 1.0080 Fold over Wnt 3a/AA control |  |  |  |  |  |  |  | 
CN(C)CCCn1nc(C2=C(c3cn(-c4cccc5ccccc45)c4ccccc34)C(=O)NC2=O)c2ccccc21 [Compound 8] | 0.743 | 5.2 | 1.01 |  | 341360000 | 0.165 | 0.154 | 0.159 | 5096 | 5706.5 | 0.853 | 319930000
NCCCn1nc(C2=C(c3cn(-c4csc5ccccc45)c4ccccc34)C(=O)NC2=O)c2ccccc21 [Compound 4] |  | 2.6 |  |  | 125125000 | 0.132 | 0.137 | 0.134 | 2776 | 2914 | 0.616 | 230965000

— patent publication US20130337564A1, “Treatment of Pluripotent Cells” (Janssen Biotech, Inc., priority 2012, published 2013)
